For 14 compounds, GI50 and TGI results are on record in PubChem BioAssay (NCI).

SMILES strings stand for the structures.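 Cells were grown in 96-well plates and exposed to each compound for 48 hours at five concentrations; endpoints were interpolated linearly between bracketing concentrations, or set to the highest concentration if not reached. Abbreviation: GI50, concentration required for 50% inhibition of growth. TGI: concentration producing complete growth inhibition.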

Among the test systems are MOLT-4 leukemia; RPMI-8226 leukemia; RXF 393 renal; SF-539 CNS; SK-MEL-28 melanoma; SNB-75 CNS; TK-10 renal; U251 CNS; UACC-257 melanoma.
Common to all, as to assay: inhibition of tumour cell growth, NCI panel, 48 h

Take `COc1ccc2c(c1)O/C(=C\c1cccc(OCC(=O)Nc3nc4c(s3)CCCC4)c1)C2=O`: the GI50 with MOLT-4 leukemia was 4.5 µM; in the assay on RPMI-8226 leukemia, 3.41 µM; in the assay on RXF 393 renal, 2.11 µM; in the assay with SF-539 CNS, 16.7 µM; with SK-MEL-28 melanoma it was over 100 µM; with SNB-75 CNS, 11.5 µM. In addition, the figures for the GI50 in the assay on TK-10 renal, with U251 CNS and in the assay with UACC-257 melanoma were over 100 µM, 2.8 µM and over 100 µM, respectively. In addition, the TGI with MOLT-4 leukemia is 98.7 µM; with RPMI-8226 leukemia it was over 33.2 µM; with RXF 393 renal it was 4.48 µM; in the assay with SF-539 CNS it was 44.1 µM; in the assay with SK-MEL-28 melanoma, over 100 µM; in the assay on SNB-75 CNS it was 54.9 µM. Moreover, the figures for the TGI with TK-10 renal, in the assay on U251 CNS and in the assay on UACC-257 melanoma were over 100 µM, 8.31 µM and over 100 µM, respectively.

As for `CC(C)=CCc1c2c(c3occ(-c4ccc(O)c(O)c4)c(=O)c3c1O)C=CC(C)(C)O2`, the TGI worked out at 1.43 µM with MOLT-4 leukemia; 4.04 µM in the assay on RPMI-8226 leukemia; 4.14 µM with RXF 393 renal; 4.14 µM with SF-539 CNS; 8.66 µM in the assay with SK-MEL-28 melanoma; 8.51 µM in the assay with SNB-75 CNS. In addition, the TGI was 3.67 µM with TK-10 renal, 2.8 µM in the assay on U251 CNS and 4.89 µM with UACC-257 melanoma.

On to `CC1(C)C(c2ccccc2)=[N+]([O-])C(C)(C)N1O`, for which the TGI in the assay with MOLT-4 leukemia, in the assay with RPMI-8226 leukemia, in the assay on RXF 393 renal, in the assay with SF-539 CNS, in the assay on SK-MEL-28 melanoma and in the assay with SNB-75 CNS was over 10 µM each time. Further, the TGI in the assay on TK-10 renal, in the assay on U251 CNS and in the assay with UACC-257 melanoma was over 10 µM in each case.

In the case of `CN(C)NC(=S)Nc1ccccc1Br`, the TGI in the assay with MOLT-4 leukemia, in the assay on RPMI-8226 leukemia, with RXF 393 renal, in the assay on SF-539 CNS, in the assay with SK-MEL-28 melanoma and in the assay with SNB-75 CNS was over 100 µM throughout. Also, the TGI in the assay on TK-10 renal, in the assay with U251 CNS and in the assay with UACC-257 melanoma was over 100 µM throughout.

Regarding `CCN(CC)CCOC(NC(C)=O)(c1ccccc1)c1ccccc1`, the TGI in the assay on MOLT-4 leukemia, in the assay on RPMI-8226 leukemia, with RXF 393 renal, with SF-539 CNS, with SK-MEL-28 melanoma and with SNB-75 CNS was over 100 µM in each case. Besides, the TGI in the assay on TK-10 renal, in the assay on U251 CNS and in the assay on UACC-257 melanoma was over 100 µM in each case.

Take `Cc1ccc(S(=O)(=O)Oc2cc(N)c3c(n2)CCC3)cc1`: the TGI in the assay with MOLT-4 leukemia, in the assay with RPMI-8226 leukemia, in the assay with RXF 393 renal, with SF-539 CNS, in the assay on SK-MEL-28 melanoma and in the assay on SNB-75 CNS was over 100 µM in each case. The TGI with TK-10 renal, with U251 CNS and with UACC-257 melanoma was over 100 µM in each case.

As for `O=C(O)[C@@H]1C[C@@H](O)CN1C(=O)OCc1ccccc1`, the TGI in the assay on MOLT-4 leukemia, with RPMI-8226 leukemia, in the assay on RXF 393 renal, with SF-539 CNS, in the assay with SK-MEL-28 melanoma and in the assay on SNB-75 CNS was over 100 µM each time. Besides, the TGI in the assay with TK-10 renal, in the assay on U251 CNS and in the assay with UACC-257 melanoma was over 100 µM each time.

Regarding `C=C1[C@@H](O)C[C@@]23CC[C@@H]4[C@@]5(C)CC[C@@H](OC(C)=O)C(C)(C)[C@@H]5C[C@@H](OC5OC(COC(C)=O)C(O)C(O)C5O)[C@@]4(C)C2=CC[C@H]3[C@H]1C` (stereo not given in full), the TGI in the assay with MOLT-4 leukemia amounted to 8.32 µM; with RPMI-8226 leukemia, 8.01 µM; in the assay on RXF 393 renal, 18.7 µM; in the assay with SF-539 CNS, 24.5 µM; with SK-MEL-28 melanoma, 19.8 µM; in the assay with SNB-75 CNS, 16.1 µM. The figures for the TGI in the assay with TK-10 renal, in the assay on U251 CNS and with UACC-257 melanoma were 21 µM, 12.5 µM and 26 µM, respectively.

In the case of `CC(C)(C)NC(=O)[C@H]1CC[C@H]2[C@@H]3CC=C4NC(=O)CC[C@]4(C)[C@H]3CC[C@]12C`, the TGI was over 100 µM with MOLT-4 leukemia; over 100 µM in the assay with RPMI-8226 leukemia; over 100 µM in the assay with RXF 393 renal; over 100 µM in the assay on SF-539 CNS; over 100 µM with SK-MEL-28 melanoma; 99 µM in the assay with SNB-75 CNS. Moreover, the TGI in the assay on TK-10 renal, in the assay on U251 CNS and in the assay with UACC-257 melanoma was over 100 µM each time.

With `CCC1=CCC23C(=O)C=CC(=O)C2(C1)C(=O)c1cccc(OC)c1C3=O` (stereo not given), the TGI in the assay on MOLT-4 leukemia is 17.4 µM; in the assay on RPMI-8226 leukemia it was 33.4 µM; with RXF 393 renal, 21 µM; in the assay with SF-539 CNS, 32.9 µM; in the assay with SK-MEL-28 melanoma, 33.3 µM; with SNB-75 CNS, 33.5 µM. Moreover, the TGI in the assay with TK-10 renal amounted to 33.5 µM; with U251 CNS, 61.8 µM; with UACC-257 melanoma, 30.1 µM.

On to `O=c1c2ncn(C3CC(O)C(CO)O3)c2nnn1Cc1ccccc1[N+](=O)[O-]` (stereo not given), for which the TGI in the assay with MOLT-4 leukemia was over 100 µM; in the assay with RPMI-8226 leukemia, over 100 µM; with RXF 393 renal it was 94.1 µM; in the assay on SF-539 CNS it was over 100 µM; in the assay with SK-MEL-28 melanoma, over 100 µM; in the assay with SNB-75 CNS, over 100 µM. The TGI in the assay on TK-10 renal, in the assay with U251 CNS and in the assay with UACC-257 melanoma was over 100 µM each time.

`Cc1ccc(S(=O)(=O)N2CCSCCSCCSCCSCC2)cc1`: the TGI was over 100 µM with MOLT-4 leukemia; over 100 µM with RPMI-8226 leukemia; over 45.9 µM with RXF 393 renal; 43.7 µM in the assay on SF-539 CNS; over 100 µM in the assay with SK-MEL-28 melanoma; 29.8 µM with SNB-75 CNS. Besides, the TGI in the assay with TK-10 renal is over 74.5 µM; with U251 CNS, 35.3 µM; in the assay on UACC-257 melanoma it was over 100 µM.

With `CCCCn1c2c(n(CCCC)c1=S)-c1c(n(CCCC)c(=S)n1CCCC)S[Se][Se]S2`, the TGI with MOLT-4 leukemia is over 37.2 µM; with RPMI-8226 leukemia, over 35.3 µM; with RXF 393 renal, 25.4 µM; in the assay on SF-539 CNS, 12.5 µM; with SK-MEL-28 melanoma, over 61.4 µM; in the assay on SNB-75 CNS, 31.5 µM. In addition, the TGI in the assay with TK-10 renal was 30.5 µM; in the assay on U251 CNS it was 16.9 µM; in the assay with UACC-257 melanoma, 30.8 µM.

In the case of `OC[C@@H](O)[C@H]1NC[C@@H](O)[C@H]1O`, the TGI with MOLT-4 leukemia, in the assay with RPMI-8226 leukemia, in the assay on RXF 393 renal, in the assay with SF-539 CNS, in the assay with SK-MEL-28 melanoma and in the assay on SNB-75 CNS was over 100 µM throughout. The TGI with TK-10 renal, in the assay with U251 CNS and with UACC-257 melanoma was over 100 µM each time.
